# Reference: paper PMC9586306 (Proceedings of the National Academy of Sciences of the …, 2022)
# Tests used:
# [1] = target: A/California/04/2009 (H1N1) neuraminidase (09N1) (Influenza A virus (A/California/04/2009(H1N1)), UniProt C3W5S3); format: biochemical; conditions: read-out: IC50 ± SEM
# [2] = target: IBV NA (B/Singapore/222/1979) (Influenza B virus, UniProt P16203); format: biochemical, Influenza B virus B/Singapore/222/1979; conditions: read-out: IC50 ± SEM
# IBV NA (B/Singapore/222/1979), sequence (P16203 77-466 limits assumed): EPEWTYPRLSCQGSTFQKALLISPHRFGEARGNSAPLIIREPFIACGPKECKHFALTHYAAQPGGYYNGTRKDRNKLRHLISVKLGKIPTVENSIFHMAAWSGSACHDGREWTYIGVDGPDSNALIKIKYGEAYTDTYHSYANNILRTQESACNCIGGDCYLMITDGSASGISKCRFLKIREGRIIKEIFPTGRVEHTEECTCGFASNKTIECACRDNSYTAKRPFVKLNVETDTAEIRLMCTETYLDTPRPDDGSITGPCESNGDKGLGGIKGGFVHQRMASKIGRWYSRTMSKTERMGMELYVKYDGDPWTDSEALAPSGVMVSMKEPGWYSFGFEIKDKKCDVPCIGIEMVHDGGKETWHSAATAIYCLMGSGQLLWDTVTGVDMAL
smiles,measurement,setting,value
"CCC(CC)[C@H](NC(C)=O)[C@@H]1[C@H](O)[C@@H](C(=O)O)C[C@H]1N=C(N)N [Peramivir, peramivir]",IC50,[1],0.45 ± 0.08 nM
same,IC50,[2],16.9 ± 1.94 nM
